Patent publication US11524963B2, “Substituted pyrazolo[3,4-d]pyrimidines as RET kinase inhibitors” (Array Biopharma Inc., priority 2018, dated 2022)
Residue numbers refer to the chain shown, from its start.

Tests used:
RET kinase Wild Type = RET kinase Wild Type (Homo sapiens, UniProt P07949); experiment: RET Enzyme Assay (HTRF KinEASE-TK), Wild Type; type: biochemical
RET kinase V804M = RET kinase V804M (Homo sapiens, UniProt P07949, V804M); experiment: RET Enzyme Assay (HTRF KinEASE-TK), V804M; type: biochemical
RET kinase V804M, sequence (P07949 29-1114 V804M): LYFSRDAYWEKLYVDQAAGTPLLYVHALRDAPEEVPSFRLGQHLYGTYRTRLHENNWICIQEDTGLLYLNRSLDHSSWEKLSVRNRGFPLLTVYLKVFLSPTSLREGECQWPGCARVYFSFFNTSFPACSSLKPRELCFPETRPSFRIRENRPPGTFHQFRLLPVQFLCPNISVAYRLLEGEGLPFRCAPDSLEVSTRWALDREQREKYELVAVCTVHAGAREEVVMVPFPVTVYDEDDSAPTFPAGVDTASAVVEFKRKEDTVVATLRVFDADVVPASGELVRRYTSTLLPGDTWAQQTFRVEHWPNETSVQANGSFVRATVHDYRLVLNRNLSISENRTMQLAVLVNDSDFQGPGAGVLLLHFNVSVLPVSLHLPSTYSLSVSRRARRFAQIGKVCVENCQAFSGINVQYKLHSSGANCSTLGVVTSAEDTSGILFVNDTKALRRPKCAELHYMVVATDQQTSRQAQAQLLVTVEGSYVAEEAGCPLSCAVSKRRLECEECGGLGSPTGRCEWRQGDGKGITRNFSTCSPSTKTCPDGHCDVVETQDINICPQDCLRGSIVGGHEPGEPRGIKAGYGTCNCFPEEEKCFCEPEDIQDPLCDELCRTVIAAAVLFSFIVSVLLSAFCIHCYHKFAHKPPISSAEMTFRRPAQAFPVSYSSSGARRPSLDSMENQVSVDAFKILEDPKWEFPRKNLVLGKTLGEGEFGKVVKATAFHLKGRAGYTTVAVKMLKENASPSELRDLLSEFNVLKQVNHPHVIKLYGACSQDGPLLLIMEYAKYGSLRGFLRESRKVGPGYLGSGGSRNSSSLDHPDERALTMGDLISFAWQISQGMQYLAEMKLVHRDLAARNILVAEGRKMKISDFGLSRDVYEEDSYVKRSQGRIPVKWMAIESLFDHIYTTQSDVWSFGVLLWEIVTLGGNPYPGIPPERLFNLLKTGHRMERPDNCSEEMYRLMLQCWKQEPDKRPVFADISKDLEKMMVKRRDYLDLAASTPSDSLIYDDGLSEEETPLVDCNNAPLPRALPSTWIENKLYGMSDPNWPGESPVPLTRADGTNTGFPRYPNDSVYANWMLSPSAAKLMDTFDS

RET kinase M918T = RET kinase M918T (Homo sapiens, UniProt P07949, M918T); experiment: RET Enzyme Assay (HTRF KinEASE-TK), M918T; type: biochemical
RET kinase M918T, sequence (P07949 29-1114 M918T): as the sequence (P07949 29-1114 V804M) above, with M776V, M890T counted along it

RET kinase G810R = RET kinase G810R (Homo sapiens, UniProt P07949, G810R); experiment: RET Enzyme Assay (HTRF KinEASE-TK), G810R; type: biochemical
RET kinase G810R, sequence (P07949 29-1114 G810R): as the sequence (P07949 29-1114 V804M) above, with M776V, G782R counted along it

RET kinase G810S = RET kinase G810S (Homo sapiens, UniProt P07949, G810S); experiment: RET Enzyme Assay (HTRF KinEASE-TK), G810S; type: biochemical
RET kinase G810S, sequence (P07949 29-1114 G810S): as the sequence (P07949 29-1114 V804M) above, with M776V, G782S counted along it

[1] = target: T1, HEK-293 cells expressing a Kif5b-RET fusion protein (Homo sapiens, UniProt P07949); experiment: RET Cell Assay (phospho-RET Tyr1062); type: cell-based; conditions: 1 hour with compound, phospho-RET(Tyr1062) normalized to GAPDH, read-out: KIF5B-RET pTYR1062 Cell IC50
T1 construct: expressed in transfected cells; host or cells: HEK-293; the other entry of the earlier key: KIF5B (P33176, Kinesin-1 heavy chain)
T1 sequence (P07949 713-1063 limits assumed): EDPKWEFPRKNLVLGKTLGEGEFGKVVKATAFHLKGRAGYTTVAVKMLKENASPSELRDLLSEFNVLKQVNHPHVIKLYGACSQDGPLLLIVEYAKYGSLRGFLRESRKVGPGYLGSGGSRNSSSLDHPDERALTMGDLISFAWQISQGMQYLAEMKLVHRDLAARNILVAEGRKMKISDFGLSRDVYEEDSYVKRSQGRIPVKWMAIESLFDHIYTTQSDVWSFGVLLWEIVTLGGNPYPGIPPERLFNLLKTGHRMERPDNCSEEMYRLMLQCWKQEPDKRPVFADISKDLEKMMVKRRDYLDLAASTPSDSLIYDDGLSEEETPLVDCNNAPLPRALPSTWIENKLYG
Experimental: (§1) The cellular potency of compounds inhibiting RET kinase were determined in HEK-293 cells expressing a Kif5b-RET fusion protein. Briefly, HEK-293 cells expressing a Kif5b-RET fusion protein were plated at 50K cells/well in 96 well poly-D-Lysine coated plates the day prior to the assay. The cells were incubated for 1 hour with test compound in DMEM (Dulbecco's Modified Eagle Medium) at a final DMSO concentration of 0.5%. […] After 1 hour the media was removed, the cells were fixed with 3.8% formaldehyde for 20 min, washed with PBS, and permeabilized for 10 min with 100% methanol. […] All antibodies were diluted in LI-COR Block containing 0.05% Tween. The plates were washed with PBS-0.05% Tween20, 100 μL PBS is added to each well, and the plates were read on a LI-COR Aerius fluorescent plate reader. The phospho-RET signal was normalized to the GAPDH signal. 100 POC (percent of control) was determined using no test compounds and 0 POC was determined using 1 μM of a control inhibitor. The POC values were fit to a 4 parameter logistic curve. The IC50 value is the point where the curve crosses 50 POC.

[2] = target: T2, HEK-293 cells expressing a G810R mutant RET Kif5b-RET fusion protein (Homo sapiens, UniProt P07949, G810R); experiment: RET G810R Mutant Cell Assay (phospho-RET Tyr1062); type: cell-based; conditions: 1 hour with compound, phospho-RET(Tyr1062) normalized to GAPDH
T2 construct: expressed in transfected cells; host or cells: HEK-293; the other entry of the earlier key: KIF5B (P33176, Kinesin-1 heavy chain)
T2 sequence (P07949 713-1063 G810R limits assumed): T1 sequence (P07949 713-1063 limits assumed) with G98R
Experimental: RET G810R and G810S Mutant Cell Assay
as §1, with “expressing a G810R or G810S mutant RET Kif5b-RET fusion” for “expressing a Kif5b-RET fusion”, “μL PBS was added to” for “μL PBS is added to”, “POC values are fit to” for “POC values were fit to”

RET kinase Wild Type, sequence (P07949 29-1114): as the sequence (P07949 29-1114 V804M) above, with M776V counted along it

Row | IC50 (RET kinase Wild Type) | IC50 (RET kinase V804M) | IC50 (RET kinase M918T) | IC50 (RET kinase G810R) | IC50 (RET kinase G810S) | IC50 [1] | IC50 [2] | SMILES
1 | 2.1 nM | 5.7 nM | 1.8 nM | 3.8 nM | 11.7 nM | 263 nM |  | CC(C)n1nc(-c2noc(C3CC3)c2Br)c2c(N)ncnc21 [Example 1, 3-(4-bromo-5-cyclopropylisoxazol-3-yl)-1-isopropyl-1H-pyrazolo[3,4-d]pyrimidin-4-amine]
2 | 1.2 nM | 2.1 nM | 1.1 nM | 4.4 nM | 4.4 nM | 75 nM | 247 nM | CC(C)n1nc(-c2noc(C3CC3)c2-c2ccn(C)n2)c2c(N)ncnc21 [Example 2, 3-(5-cyclopropyl-4-(1-methyl-1H-pyrazol-3-yl)isoxazol-3-yl)-1-isopropyl-1H-pyrazolo[3,4-d]pyrimidin-4-amine]
3 | 2.7 nM | 20.5 nM | 3.2 nM | 7.1 nM | 11.7 nM | 105 nM |  | CC(C)n1nc(-c2noc(C3CC3)c2C2=CCC(=O)CC2)c2c(N)ncnc21 [Example 5, 4-(3-(4-amino-1-isopropyl-1H-pyrazolo[3,4-d]pyrimidin-3-yl)-5-cyclopropylisoxazol-4-yl)cyclohex-3-en-1-one]
4 | 4.7 nM | 23.9 nM | 4.5 nM | 10 nM | 26.2 nM | 488 nM |  | CC(C)n1nc(-c2noc(C3CC3)c2-c2ccccc2)c2c(N)ncnc21 [Example 6, 3-(5-cyclopropyl-4-phenylisoxazol-3-yl)-1-isopropyl-1H-pyrazolo[3,4-d]pyrimidin-4-amine]
5 | 0.3 nM | 0.6 nM | 0.2 nM | 1.4 nM | 1.4 nM | 24 nM | 137 nM | CC(C)n1nc(-c2noc(C3CC3)c2C2=CCCCO2)c2c(N)ncnc21 [Example 9, 3-(5-cyclopropyl-4-(3,4-dihydro-2H-pyran-6-yl)isoxazol-3-yl)-1-isopropyl-1H-pyrazolo[3,4-d]pyrimidin-4-amine]
6 | 1.5 nM | 13.8 nM | 2.2 nM | 4.1 nM | 13.6 nM | 199 nM |  | CC(C)n1nc(-c2noc(C3CC3)c2C2=COCCC2)c2c(N)ncnc21 [Example 10, 3-(5-cyclopropyl-4-(3,4-dihydro-2H-pyran-5-yl)isoxazol-3-yl)-1-isopropyl-1H-pyrazolo[3,4-d]pyrimidin-4-amine]
7 | 1.5 nM | 4.4 nM | 1.2 nM | 3.5 nM | 4.9 nM | 86 nM |  | CC(C)n1nc(-c2noc(C3CC3)c2-c2ncccn2)c2c(N)ncnc21 [Example 11, 3-(5-cyclopropyl-4-(pyrimidin-2-yl)isoxazol-3-yl)-1-isopropyl-1H-pyrazolo[3,4-d]pyrimidin-4-amine]
8 | 1.2 nM | 7 nM | 1.5 nM | 4.1 nM | 4.9 nM | 35 nM | 86 nM | CC(C)n1nc(-c2noc(C3CC3)c2C2=CCC(O)CC2)c2c(N)ncnc21 (stereo not shown) [Example 14, 4-(3-(4-amino-1-isopropyl-1H-pyrazolo[3,4-d]pyrimidin-3-yl)-5-cyclopropylisoxazol-4-yl)cyclohex-3-en-1-ol]
9 | 1.3 nM | 6.5 nM | 1.6 nM | 6.3 nM | 6.3 nM | 42 nM | 263 nM | CC(C)n1nc(-c2noc(C3CC3)c2C2=CCC(C)(O)CC2)c2c(N)ncnc21 (stereo not shown) [Example 15, 4-(3-(4-amino-1-isopropyl-1H-pyrazolo[3,4-d]pyrimidin-3-yl)-5-cyclopropylisoxazol-4-yl)-1-methylcyclohex-3-en-1-ol]
10 | 0.6 nM | 1.3 nM | 0.7 nM | 3.6 nM | 4 nM | 28 nM | 162 nM | CC(C)n1nc(-c2noc(C3CC3)c2C2CCCCO2)c2c(N)ncnc21 (stereo not shown) [Example 16, 3-(5-cyclopropyl-4-(tetrahydro-2H-pyran-2-yl)isoxazol-3-yl)-1-isopropyl-1H-pyrazolo[3,4-d]pyrimidin-4-amine]
11 | 0.7 nM | 7.5 nM | 0.8 nM | 2.2 nM | 3.7 nM | 68 nM | 264 nM | CC(C)n1nc(-c2noc(C3CC3)c2C2CCOCC2)c2c(N)ncnc21 [Example 17, 3-(5-cyclopropyl-4-(tetrahydro-2H-pyran-4-yl)isoxazol-3-yl)-1-isopropyl-1H-pyrazolo[3,4-d]pyrimidin-4-amine]
12 | 1.1 nM | 3.1 nM | 1 nM | 4.4 nM | 4.3 nM | 42 nM |  | CC(C)n1nc(-c2noc([C@@H](C)O)c2-c2ccccn2)c2c(N)ncnc21 [Example 18, (R)-1-(3-(4-amino-1-isopropyl-1H-pyrazolo[3,4-d]pyrimidin-3-yl)-4-(pyridin-2-yl)isoxazol-5-yl)ethan-1-ol]
13 | 3.9 nM | 418 nM | 6.1 nM | 28.9 nM | 24.1 nM | 40 nM | 628 nM | CC(C)n1nc(-c2cc(C3CC3)nn2C2CCCCO2)c2c(N)ncnc21 (stereo not shown) [Example 19, 3-(3-cyclopropyl-1-(tetrahydro-2H-pyran-2-yl)-1H-pyrazol-5-yl)-1-isopropyl-1H-pyrazolo[3,4-d]pyrimidin-4-amine]
14 | 2.1 nM | 260 nM | 4.1 nM | 19.5 nM | 17.9 nM | 36 nM | 342 nM | Cc1cc(-c2nn(C(C)C)c3ncnc(N)c23)n(C2CCCCO2)n1 (stereo not shown) [Example 21, 1-isopropyl-3-(3-methyl-1-(tetrahydro-2H-pyran-2-yl)-1H-pyrazol-5-yl)-1H-pyrazolo[3,4-d]pyrimidin-4-amine]
15 | 2.3 nM | 307 nM | 3 nM | 16.5 nM | 13 nM | 21 nM | 214 nM | C=Cc1cc(-c2nn(C(C)C)c3ncnc(N)c23)n(C2CCCCO2)n1 (stereo not shown) [Example 22, 1-isopropyl-3-(1-(tetrahydro-2H-pyran-2-yl)-3-vinyl-1H-pyrazol-5-yl)-1H-pyrazolo[3,4-d]pyrimidin-4-amine]
16 | 4.1 nM | 27.4 nM | 8.5 nM | 15.8 nM | 46 nM | 344 nM | 10000 nM | CC(C)n1nc(-c2ccnn2C2CCCCO2)c2c(N)ncnc21 (stereo not shown) [Example 23, 1-isopropyl-3-(1-(tetrahydro-2H-pyran-2-yl)-1H-pyrazol-5-yl)-1H-pyrazolo[3,4-d]pyrimidin-4-amine]
